Publication PMC8545135, “Discovery of Bacterial Fimbria–Glycan Interactions Using Whole-Cell Recombinant Escherichia coli Expression” (mBio, 2021)

Key:
[1] = biological target: T1, K88 (E. coli); F4ac (K88ac) fimbriae, MS428(pK88-AC) (Escherichia coli, UniProt P14190); assay: whole-cell SPR, Biacore T200, C1 chip, single-cycle kinetics; format: cell-based; conditions: fimbriae on immobilized whole cells; MS428 reference cell
T1 construct: gene faeG; native F4ac fimbriae on whole cells of fim-negative E. coli MS428, plasmid pK88-AC with F4ac gene cluster
T1 sequence (P14190 22-283 limits assumed): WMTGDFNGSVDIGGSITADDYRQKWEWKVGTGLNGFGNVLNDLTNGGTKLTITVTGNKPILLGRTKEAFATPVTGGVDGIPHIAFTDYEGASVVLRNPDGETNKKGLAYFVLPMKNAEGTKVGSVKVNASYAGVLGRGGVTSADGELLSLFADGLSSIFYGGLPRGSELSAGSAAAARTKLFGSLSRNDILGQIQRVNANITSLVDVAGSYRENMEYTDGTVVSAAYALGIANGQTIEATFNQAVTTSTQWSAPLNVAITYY
From the text: whole-cell SPR, Biacore T200, C1 chip, single-cycle kinetics on K88 (E. coli); F4ac (K88ac) fimbriae, MS428(pK88-AC)

[2] = biological target: T2, FimH (E. coli); type 1 fimbriae, MS428(pPKL4) (Escherichia coli, UniProt P08191); assay: as above; format: cell-based; conditions: fimbriae on immobilized whole cells; MS428 reference cell
T2 construct: with Type-1 fimbrial protein, A chain; Protein FimF; Protein FimG
T2 sequence (P08191 22-300): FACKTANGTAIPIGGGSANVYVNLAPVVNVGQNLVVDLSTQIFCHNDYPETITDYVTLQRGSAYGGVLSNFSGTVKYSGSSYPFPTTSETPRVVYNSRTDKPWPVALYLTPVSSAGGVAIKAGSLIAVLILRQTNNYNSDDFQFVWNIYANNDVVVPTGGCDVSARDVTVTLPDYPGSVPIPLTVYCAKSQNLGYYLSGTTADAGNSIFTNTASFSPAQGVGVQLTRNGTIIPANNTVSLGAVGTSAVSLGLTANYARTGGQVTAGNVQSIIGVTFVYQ
T2 sequence (P04128 24-182, further chain): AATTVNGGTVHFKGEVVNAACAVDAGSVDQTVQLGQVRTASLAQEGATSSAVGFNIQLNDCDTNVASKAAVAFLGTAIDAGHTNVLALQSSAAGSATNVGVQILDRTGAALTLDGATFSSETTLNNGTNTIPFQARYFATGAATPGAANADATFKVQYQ
From the text: whole-cell SPR, Biacore T200, C1 chip, single-cycle kinetics on FimH (E. coli); type 1 fimbriae, MS428(pPKL4)

[3] = biological target: T3, FimH^LD (purified FimH lectin-binding domain) (Escherichia coli, UniProt P08191); assay: SPR, CM5 chip, immobilized protein; conditions: glycans 1.6 nM to 1 μM
T3 construct: purified as previously described
T3 sequence (P08191 22-179): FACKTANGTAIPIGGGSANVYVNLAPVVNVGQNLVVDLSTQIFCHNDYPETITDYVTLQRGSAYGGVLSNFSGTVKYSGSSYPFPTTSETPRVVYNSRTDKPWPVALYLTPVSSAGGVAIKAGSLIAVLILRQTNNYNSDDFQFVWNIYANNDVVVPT
From the text: SPR, CM5 chip, immobilized protein on FimH^LD (purified FimH lectin-binding domain)

Molecule	Disassociation constant^a: / K88 (E. coli) [1]	Disassociation constant^a: / FimH (E. coli) [2]	Disassociation constant^a: / FimH (protein) [3]
CC(=O)N[C@H]1[C@H](O[C@@H]2[C@H](O)[C@@H](O)[C@H](O[C@H]3[C@H](O)[C@@H](O)C(O)O[C@@H]3CO)O[C@@H]2CO)O[C@H](CO)[C@H](O)[C@@H]1O[C@@H]1O[C@H](CO)[C@H](O)[C@H](O)[C@H]1O (stereo partly drawn) [1F, AsialoGM1]	11.02 ± 3.9 µM		
OC[C@H]1O[C@H](O[C@H]2[C@@H](O)[C@@H](CO)OC(O)[C@@H]2O)[C@H](O)[C@@H](O)[C@H]1O (stereo partly drawn) [Galα1-3Gal]	0.1603 ± 0.03 µM		
OCC1OC(OCC2OC(OCC3OC(O)C(O)C(OC4OC(CO)C(O)C(O)C4O)C3O)C(O)C(OC3OC(CO)C(O)C(O)C3O)C2O)C(O)C(O)C1O (stereo not drawn) [Man5]		2.0 ± 0.842 µM	607 ± 142 nM
Man5NAc		0.0274 ± 0.0168 µM	25.9 ± 8.9 nM
